Assay results taken from patent US20100234323A1, “Antimicrobial Acids and Salts” (priority 2006, published 2010).
Values joined by “and” are separate entries in the source; they are usually repeats but may differ in a detail not shown here. Equal values may be shown once.

Legend:
[1] = test system: Escherichia coli (ATCC 10535); experiment: Microbicidal activity, European Standard EN1040 suspension test; format: cell-based; details: for E. coli cfu/mL (residual cell count): room temperature
Description: (§1) Microbicidal activity of different anionic siloxanes with carboxyl groups is tested according to European Standard EN1040. A bacterial suspension with a cell count of about 10^7 cfu/ml (cfu stands for colony-forming units) is contacted with appropriate concentrations of the specific substances and the residual cell count is determined after incubation times of 5 and 30 min. at room temperature under continuos stirring. Staphylococcus aureus (ATCC 5638, American Type Culture Collection, Manassas, USA) is tested as gram+ (gram positive) and Escherichia coli (ATCC 10535, American Type Culture Collection) as gram-organism. The results are given as a log reduction at each incubation time in comparison to a water control in the following tables (a) and (b): […]

[2] = test system: Staphylococcus aureus (ATCC 5638); experiment: as above; format: cell-based; details: for S. aureus cfu/mL (residual cell count): room temperature
Description: as §1

[3] = test system: Aspergillus niger (DSM 1957/ATCC 6275); experiment: Fungicidal activity, European Standard EN12175 spore suspension test; format: cell-based; details: test conc. 1%; for log reduction A. niger: vs water control
Description: (§2) Fungicidal activity is tested according to European Standard EN12175. A fungal spore suspension with a spore cell count of about 10^6 cfu/ml is contacted with appropriate concentrations of the specific substances (Examples) mentioned in the tables below and the residual spore cell count is determined after incubation times of 30 and 60 min at room temperature under continuous stirring. Penicillium funiculosum (DSM 1960), Aspergillus niger (DSM 1957/ATCC 6275) and Aureobasidium pullulans (DSM 2404) are tested as important mold strains. DSM refers to microorganisms obtainable under the numbers given at the DSMZ (Deutsche Sammlung von Mikroorganismen and Zellkulturen GmbH, Braunschweig, Germany). ATCC numbers refer to organisms obtainable from the American Type Culture Collection (see Example 6). The results are given as a log reduction at each incubation time in comparison to a water control in table (d): […]

[4] = test system: Aureobasidium pullulans (DSM 2404); experiment: as above; format: cell-based; details: test conc. 1%; for log reduction A. pull.: vs water control
Description: as §2

[5] = test system: Penicillium funiculosum (DSM 1960); experiment: as above; format: cell-based; details: test conc. 1%; for log reduction P. funic.: vs water control
Description: as §2

[6] = test system: Staphylococcus aureus cells; experiment: Antiadhesive efficacy on coated PMMA test specimen, antibody colorimetric assay; format: cell-based; details: specimen coated from 0.50% solution in EtOH; S. aureus suspension 1 hour at 30°
Description: The antiadhesive efficacy (inhibition of adhesion of microorganisms) is tested after temporarily attaching various compounds to PMMA test specimen by incubation of the test specimen in a 0.5% solution in ethanol. The coated specimen are then dried and afterwards incubated in a suspension of Staphylococcus aureus cells for 1 hour at 30° under shaking. After some washing steps, the attached cells are detected via binding of a primary antibody and—after incubation of night and again washing steps—binding of a secondary antibody with alkaline phosphatase attached. The adhesion is then determined in a colorimetric assay in comparison to an untreated PMMA test specimen, which is calculated as showing 100% adhesion.

S. aureus ATCC 6538 = experiment: Antibacterial efficacy on treated polypropylene non-woven, modified AATCC-100; format: cell-based, Staphylococcus aureus
Description: (§3) A solution of Example 1 in a solvent (tetrahydrofurane and/or acetone) is prepared with a concentration of 1 or 2% of the compound of Example 1. This solution is sonicated for 1 min to ensure complete dissolution of the test acid compound. Then polypropylene non-woven (10×10 cm) is dipped into the solution (100 ml) and left under sonication for 1 min. The non-woven is taken out of the solution and dried on air at room temperature for some hours. This non-woven is then used for microbial testing as follows:
(§4) The efficacy of Example 1 is tested after application onto polypropylene non-woven material according to a modified AATCC-100 standard for assessing antibacterial activity on textiles. Overnight cultures of two test bacteria are contacted with the treated non-woven material by pipetting a diluted suspension onto the surface of the material. The non-woven is then incubated for 24 hours at 37° C., and then the cell count is determined by elution of the materials into a neutralizing medium, dilution series and plate count technique. As in the basic test for microbicidal activity (Example 6), Staphylococcus aureus is used as the gram+ and Escherichia coli as the gram-organism.
(§5) The results are given in tables (f) and (g) as cell count directly after inoculation and after 24 hours incubation time in comparison to an untreated polypropylene non-woven as the blank.

E. coli ATCC 10536 = experiment: as above; format: cell-based, Escherichia coli
Description: as §3, §4, §5

[7] = test concentration 1%, 5 min, vs water control
[8] = test concentration 1%, 30 min, vs water control
[9] = 1% in EtOH (ethanolic stock solution), 5 min
[10] = 1% in EtOH (ethanolic stock solution), 30 min
[11] = 1% in H2O (stock solution in water), 5 min
[12] = 1% in H2O (stock solution in water), 30 min
[13] = test concentration 1000 ppm, 5 min
[14] = test concentration 1000 ppm, 30 min

C[Si](C)(C)O[Si](C)(C)O[Si](C)(CCCC(CC(=O)O)C(=O)O)O[Si](C)(C)C (centres unmarked) [Example 4] was tested, and the “E. coli cfu/mL (residual cell count)” value ([1]; test concentration 1%, 5 min) was 1.03E+05 cfu/mL, the “log reduction E. coli” value [1, 7] was 2.3 and the “E. coli cfu/mL (residual cell count)” value ([1]; test concentration 1%, 30 min) was 0.00E+00 cfu/mL. The “log reduction E. coli” value [1, 8] was over 5, the “S. aureus cfu/mL (residual cell count)” value ([2]; test concentration 1%, 5 min) was 3.22E+06 cfu/mL and the “log reduction S. aureus” value [2, 7] was under 1. For the same compound, the “S. aureus cfu/mL (residual cell count)” value ([2]; test concentration 1%, 30 min) was 1.67E+04 cfu/mL, the “log reduction S. aureus” value [2, 8] was 2.9 and the “A. niger cfu/mL (residual spore cell count)” value ([3]; 30 min) was 1.5E+04 cfu/mL. The “log reduction A. niger” value ([3]; 30 min) was 2.0, the “A. niger cfu/mL (residual spore cell count)” value ([3]; 1 h) was 1.3E+04 cfu/mL and the “log reduction A. niger” value ([3]; 1 h) was 2.1. The “A. pull. cfu/mL (residual spore cell count)” value ([4]; 30 min) was 1.3E+05 cfu/mL, the “log reduction A. pull.” value ([4]; 30 min) was under 1 and the “A. pull. cfu/mL (residual spore cell count)” value ([4]; 1 h) was 9.0E+04 cfu/mL. For the same compound, the “log reduction A. pull.” value ([4]; 1 h) was under 1, the “P. funic. cfu/mL (residual spore cell count)” value ([5]; 30 min) was 4.8E+05 cfu/mL and the “log reduction P. funic.” value ([5]; 30 min) was 1.0. The “P. funic. cfu/mL (residual spore cell count)” value ([5]; 1 h) was 1.14E+05 cfu/mL, the “log reduction P. funic.” value ([5]; 1 h) was 1.6 and the “results on PMMA (adhesion; untreated PMMA = 100% adhesion)” value [6] was 46%.

With C[Si]1(CCCC(CC(=O)O)C(=O)O)O[Si](C)(CCCC(CC(=O)O)C(=O)O)O[Si](C)(CCCC(CC(=O)O)C(=O)O)O[Si](C)(CCCC(CC(=O)O)C(=O)O)O1 (centres unmarked) [Example 1] the “E. coli cfu/mL” value [1, 9] was 1.37E+06 cfu/mL, the “log reduction E. coli” value [1, 9] was 1.2 and the “E. coli cfu/mL” value [1, 10] was 0.00E+00 cfu/mL. The “log reduction E. coli” value [1, 10] was over 5, the “E. coli cfu/mL” value [1, 11] was 4.62E+06 cfu/mL and 5.03E+06 cfu/mL and the “log reduction E. coli” value [1, 11] was under 1. The “E. coli cfu/mL” value [1, 12] was 1.97E+06 cfu/mL and 2.09E+06 cfu/mL, the “log reduction E. coli” value [1, 12] was 1.1 and the “E. coli cfu/mL (residual cell count)” value ([1]; test concentration 1%, 5 min) was 0.00E+00 cfu/mL. The “log reduction E. coli” value [1, 7] was over 5, the “E. coli cfu/mL (residual cell count)” value ([1]; test concentration 1%, 30 min) was 0.00E+00 cfu/mL and the “log reduction E. coli” value [1, 8] was over 5. For the same compound, the “S. aureus cfu/mL” value [2, 9] was 3.45E+06 cfu/mL, the “log reduction S. aureus” value [2, 9] was 1 and the “S. aureus cfu/mL” value [2, 10] was 1.10E+04 cfu/mL. The “log reduction S. aureus” value [2, 10] was 3.3, the “S. aureus cfu/mL” value [2, 11] was 6.98E+06 cfu/mL and 8.19E+06 cfu/mL and the “log reduction S. aureus” value [2, 11] was under 1. For the same compound, the “S. aureus cfu/mL” value [2, 12] was 9.55E+05 cfu/mL and 1.12E+06 cfu/mL, the “log reduction S. aureus” value [2, 12] was 1.3 and the “S. aureus cfu/mL (residual cell count)” value ([2]; test concentration 1%, 5 min) was 1.20E+04 cfu/mL. For the same compound, the “log reduction S. aureus” value [2, 7] was 3.1, the “S. aureus cfu/mL (residual cell count)” value ([2]; test concentration 1%, 30 min) was 0.00E+00 cfu/mL and the “log reduction S. aureus” value [2, 8] was over 5. For the same compound, the “A. niger cfu/mL (residual spore cell count)” value ([3]; 30 min) was 1.1E+06 cfu/mL, the “log reduction A. niger” value ([3]; 30 min) was under 1 and the “A. niger cfu/mL (residual spore cell count)” value ([3]; 1 h) was 1.2E+06 cfu/mL. The “log reduction A. niger” value ([3]; 1 h) was under 1, the “A. pull. cfu/mL (residual spore cell count)” value ([4]; 30 min) was 2.1E+05 cfu/mL and the “log reduction A. pull.” value ([4]; 30 min) was under 1. For the same compound, the “A. pull. cfu/mL (residual spore cell count)” value ([4]; 1 h) was 2.2E+05 cfu/mL, the “log reduction A. pull.” value ([4]; 1 h) was under 1 and the “P. funic. cfu/mL (residual spore cell count)” value ([5]; 30 min) was 4.0E+06 cfu/mL. For the same compound, the “log reduction P. funic.” value ([5]; 30 min) was under 1, the “P. funic. cfu/mL (residual spore cell count)” value ([5]; 1 h) was 3.8E+06 cfu/mL and the “log reduction P. funic.” value ([5]; 1 h) was under 1. For the same compound, the “results on PMMA (adhesion; untreated PMMA = 100% adhesion)” value [6] was 85%, the “activity against S. aureus (in words)” value (S. aureus ATCC 6538; applied at 2%) was “full activity” and the “activity against S. aureus (in words)” value (S. aureus ATCC 6538; non-woven treated with 1%) was “some but inconsistent activity”. For the same compound, the “S. aureus cell count, 24 hours” value (S. aureus ATCC 6538; polypropylene nonwoven treated with 2% solution, 24 hours at 37° C.) was under 100 cfu/sample, the “activity against E. coli (in words)” value (E. coli ATCC 10536; applied at 2%) was “high activity” and the “activity against E. coli (in words)” value (E. coli ATCC 10536; non-woven treated with 1%) was “no activity”.

For C[Si]1(CCCP(=O)(O)O)O[Si](C)(CCCP(=O)(O)O)O[Si](C)(CCCP(=O)(O)O)O[Si](C)(CCCP(=O)(O)O)O1 (centres unmarked) [Example 2], the “E. coli cfu/mL” value [1, 13] was 1.50E+04 cfu/mL, the “log reduction E. coli” value [1, 13] was 3.2 and the “E. coli cfu/mL” value [1, 14] was 0.00E+00 cfu/mL. For the same compound, the “log reduction E. coli” value [1, 14] was over 5, the “S. aureus cfu/mL” value [2, 13] was 1.42E+03 cfu/mL and the “log reduction S. aureus” value [2, 13] was 4.3. For the same compound, the “S. aureus cfu/mL” value [2, 14] was 0.00E+00 cfu/mL and the “log reduction S. aureus” value [2, 14] was over 5.

In the case of C[Si](C)(CCCC(CC(=O)O)C(=O)O)O[Si](C)(C)O[Si](C)(C)O[Si](C)(C)O[Si](C)(C)O[Si](C)(C)O[Si](C)(C)O[Si](C)(C)O[Si](C)(C)O[Si](C)(C)O[Si](C)(C)O[Si](C)(C)CCCC(CC(=O)O)C(=O)O (centres unmarked) [Example 5], the “E. coli cfu/mL (residual cell count)” value ([1]; test concentration 1%, 5 min) is reported as 1.54E+07 cfu/mL, the “log reduction E. coli” value [1, 7] is reported as under 1 and the “E. coli cfu/mL (residual cell count)” value ([1]; test concentration 1%, 30 min) is reported as 3.58E+06 cfu/mL. The “log reduction E. coli” value [1, 8] was under 1, the “S. aureus cfu/mL (residual cell count)” value ([2]; test concentration 1%, 5 min) was 1.34E+07 cfu/mL and the “log reduction S. aureus” value [2, 7] was under 1. The “S. aureus cfu/mL (residual cell count)” value ([2]; test concentration 1%, 30 min) was 7.86E+06 cfu/mL, the “log reduction S. aureus” value [2, 8] was under 1 and the “A. niger cfu/mL (residual spore cell count)” value ([3]; 30 min) was 7.0E+05 cfu/mL. The “log reduction A. niger” value ([3]; 30 min) was under 1, the “A. niger cfu/mL (residual spore cell count)” value ([3]; 1 h) was 6.0E+05 cfu/mL and the “log reduction A. niger” value ([3]; 1 h) was under 1. The “A. pull. cfu/mL (residual spore cell count)” value ([4]; 30 min) was 3.5E+05 cfu/mL, the “log reduction A. pull.” value ([4]; 30 min) was under 1 and the “A. pull. cfu/mL (residual spore cell count)” value ([4]; 1 h) was 3.4E+05 cfu/mL. The “log reduction A. pull.” value ([4]; 1 h) was under 1, the “P. funic. cfu/mL (residual spore cell count)” value ([5]; 30 min) was 2.5E+06 cfu/mL and the “log reduction P. funic.” value ([5]; 30 min) was under 1. For the same compound, the “P. funic. cfu/mL (residual spore cell count)” value ([5]; 1 h) was 2.7E+06 cfu/mL, the “log reduction P. funic.” value ([5]; 1 h) was under 1 and the “results on PMMA (adhesion; untreated PMMA = 100% adhesion)” value [6] was 50%.
